{"source": "patent US20230390386A1", "about": "“REPLICATION-DEFECTIVE VACCINES AND USES THEREOF” (priority 2020, published 2023)", "key": {"ToledoLuc strain of HCMV": {"system": "ToledoLuc strain of HCMV", "assay": "ToledoLuc growth curve in MRC-5 cells after CM treatment of virus (bioluminescence)", "assay_type": "cell-based, human cytomegalovirus", "protocol": "ToledoLuc treatment with CM: The human cytomegalovirus (HCMV) strain ToledoLuc, which contains a luciferase expression cassette, was used in this study and well-known to those of skill in the art. Cells of the MRC-5 human diploid fibroblast line were seeded into 12-well plates. […] After 2 hours of treatment with CM, ToledoLuc viruses were washed 3 times with cDMEM and added to MRC-5 cells at an MOI of 0.05 in triplicate wells. The control includes the ToledoLuc treated with the PET vehicle in a similar way. The growth kinetics of ToledoLuc was determined by bioluminescence assay. The luciferase activity of ToledoLuc virus was measured every 24 hours using IVIS-50.\nIn the present example, the effect of CM treatment on the HCMV was first examined using the modified ToledoLuc strain of HCMV. ToledoLuc was treated with different concentrations of CM for two hours at room temperature, washed to remove unbound CM and then allowed to grow in the MRCS cells."}, "HSV-2 GFP": {"system": "HSV-2 GFP", "assay": "HSV-2 GFP fluorescence imaging and growth curve (plaque assay) in ARPE-19 cells after CM treatment", "assay_type": "cell-based, human simplex virus-2", "details": "for HSV-2-GFP infection and growth: ARPE-19 cells", "protocol": "Human Simplex Virus (HSV) treatment with CM: The ARPE-19 (ATCC CRL-2302) cells were grown in 12 well plate in DMEM with 10% FBS and 1% P/S. […] were treated with different concentration of centanamycin (100 μM, 10 μM, 1μM, 0.1 μM, and 0.01 μM) for two hours at room temperature. The CM treated HSV were washed 3 times with cDMEM after treatment to remove CM and added to the ARPE-19 cells in triplicate at an MOI of 0.2. The HSV viruses were collected at 6, 12, 18, 24, 30, 36, and 42 hours of post-infection. The virus titer was determined by plaque assays using ARPE-19 cells.\nIn this study, the HSV-2 GFP was treated with the different concentrations of CM ranging from 100 μM to 0.01 μM (10-fold serial dilution at each concentration) and determined the growth curve using plaque assay (FIG. 2B). […] A 10 μM CM treatment of HSV-2-GFP leads to the virus attenuation and the virus was not able to spread to adjacent cells (FIG. 2A). […] The virus treatment with 1 μM CM lead to viral infection in host cells and extremely slowly spread to neighbor cells (FIG. 2A)."}, "VZV-Luc [1]": {"system": "VZV-Luc", "assay": "Cell-free VZV-Luc growth curve in ARPE-19 cells after CM treatment", "assay_type": "cell-based, varicella zoster virus", "details": "for VZV-Luc growth and spread: two hours at RT, ARPE-19 cells", "protocol": "Cell-free Varicella-zoster virus (VZV) treatment with the CM: VZV is a cell-associated virus. The efficacy of CM on VZV was checked using growth curve analysis. VZV-GFP-Luc was used to check the effect of CM on the virus. The ARPE-19 cells were seeded in 6-well plate and maintained at 37° C. and 5% CO2. The cell-free virus was treated with different concentration of CM (centanamycin (100 μM, 10 μM, and 0.1 μM) for two hours at RT and washed with three times with cDMEM prior to adding to the cells. The virus load in the infected cells was determined by adding luciferin substrate and measuring relative luciferase units every 24 hours of post-infection. The control included the cells infected with the virus without CM treatment. Viability of infected cells was quantified using the Cell Counting Kit-8 (Sigma# 96992) according to the manufacturers protocol.\nSubsequent studies then evaluated the effect of CM treatment on the replication and growth of human alphaherpesvirus-3, also known as varicella zoster virus (VZV), under in vitro conditions in human epithelial ARPE-19 cells. The VZV is a highly cell associated virus and it is transmitted by cell-cell spread. The cell-free, luciferase-expressing VZV-Luc was treated with different concentration of CM (100 μM, 10 μM, 1.0 μM, and 0.1 μM) for two hours at RT. After two hours, the virus was added to the ARPE-19 cells. […] As compared to the CMV which can be attenuated with 1 μM CM, VZV is attenuated with 10 μM CM and this is because VZV is a cell associated virus and CM needs to cross the cell membrane to bind the virus and completely attenuates the VZV."}, "MCMV-Luc": {"system": "MCMV-Luc", "assay": "MCMV-Luc growth curve in NIH 3T3 cells after CM treatment", "assay_type": "cell-based, mouse cytomegalovirus", "details": "two hours at RT, MOI 0.1", "protocol": "Previous studies in the current disclosure had been conducted in vitro. […] This study would identify a CM concentration required to attenuate the MCMV. For this assay, a luciferase-expressing version of MCMV, MCMV-Luc was used, and viral growth was measured as photon counts during intravital imaging using an in vivo imaging system (IVIS). The MCMV-Luc was treated with different concentrations of CM at RT for two hours and then added to NIH 3T3 cells established in 24 well plates in triplicate at a multiplicity of infection (MOI) of 0.1. The MCMV growth curve was determined by measuring the luciferase expression every 24 h using IVIS. […] This information was used to perform In vivo analysis of CM effect on the MCMV replication in the mice."}, "VZV-Luc [2]": {"system": "VZV-Luc", "assay": "CM treated VZV-Luc growth in human fetal skin implants of SCID-hu mouse model", "assay_type": "in vivo", "details": "for VZV growth in implanted skin tissues: 10^3 PFU, 12 days", "description": "SCID mice of arbitrary sex, 6-8 weeks old were used to produce the SCID-hu mouse model by implanting human fetal skin under the mouse skin as described previously to study the therapeutic efficacy of CM on the VZV replication and attenuation. The human fetal skin tissues were acquired from Advance Biosciences Resources (Alameda, CA) and processed as described previously (Selariu, Anca et al. “ORF7 of varicella-zoster virus is a neurotropic factor.” Journal of virology vol. 86, 16 (2012): 8614-24.). The VZV-Luc was treated with CM of 10.0 μM, and 1.0 μM followed by washing with DMEM media to remove CM. The acyclovir (30 mg/kg) was used as a positive control. VZV-Luc treated with drug vehicle was used as a mock. The viral load was determined every 48 hours as total photon counts in the infected implanted tissues. The total photon counts were determined using IVIS imaging of infected animals as represented in FIGS. 10A and 10B. The image of one mouse from each group is shown in FIG. 10B after 12 days of post-treatment. Four weeks after implantation, the implanted human tissues were surgically exposed and inoculated with 10^3 PFU of VZV-Luc. Luciferase activity within the implants was measured every 48 h for 12 days using the IVIS200 imaging system and Live Image software."}, "[3]": {"details": "VZV-Luc treated with 10.0 μM CM"}}}
{"smiles": "COc1cc2cc(C(=O)Nc3cc(N)c4ccccc4c3CCCl)[nH]c2c(OC)c1OC", "note": "[CM, centanamycin]", "values": [{"measurement": "ToledoLuc infection and replication (luciferase activity)", "setting": "ToledoLuc strain of HCMV; virus treated with 0.01 μM-0.001 μM CM", "result": "allows the virus to grow and replicate in the infected cells"}, {"measurement": "ToledoLuc infection and replication (luciferase activity)", "setting": "ToledoLuc strain of HCMV; virus treated with 0.1 μM CM, 2 hours at RT", "result": "allow the virus to infect the cells but did not replicate"}, {"measurement": "ToledoLuc infection and replication (luciferase activity)", "setting": "ToledoLuc strain of HCMV; virus treated with 1 μM CM, 2 hours at RT, MRC5 cells, 9 days post-infection", "result": "did not grow and was replication-defective"}, {"measurement": "ToledoLuc infection and replication (luciferase activity)", "setting": "ToledoLuc strain of HCMV; virus treated with 10 μM CM, 2 hours at RT, MRC5 cells", "result": "neither replicate nor infects the cells"}, {"measurement": "ToledoLuc infection and replication (luciferase activity)", "setting": "ToledoLuc strain of HCMV; virus treated with 100 μM CM, 2 hours at RT, MRC5 cells", "result": "neither replicate nor infects the cells"}, {"measurement": "CM concentration needed to produce replication-defective HSV-2", "setting": "HSV-2 GFP", "result": 1, "unit": "µM"}, {"measurement": "HSV-2-GFP infection and growth", "setting": "HSV-2 GFP; virus treated with 1.0 μM CM", "result": "slower growth as compared to untreated"}, {"measurement": "HSV-2-GFP infection and growth", "setting": "HSV-2 GFP; virus treated with 10 μM CM", "result": "able to infect the cells but not replicate"}, {"measurement": "HSV-2-GFP infection and growth", "setting": "HSV-2 GFP; virus treated with 100 μM CM", "result": "completely inhibits the virus infection"}, {"measurement": "CM concentration that attenuates VZV", "setting": "VZV-Luc [1]", "result": 10, "unit": "µM"}, {"measurement": "VZV-Luc growth and spread", "setting": "VZV-Luc [1]; cell-free virus treated with 0.1 μM CM", "result": "infect as well as spread to the adjacent cells but with reduced growth"}, {"measurement": "VZV-Luc growth and spread", "setting": "VZV-Luc [1]; cell-free virus treated with 1.0 μM CM", "result": "infect as well as spread to the adjacent cells but with reduced growth"}, {"measurement": "VZV-Luc growth and spread", "setting": "VZV-Luc [1]; cell-free virus treated with 10.0 μM CM", "result": "allowed the virus to infect the cells but not to spread to the adjacent cells"}, {"measurement": "VZV-Luc growth and spread", "setting": "VZV-Luc [1]; cell-free virus treated with 100 μM CM", "result": "completely inhibit the growth as well as replication"}, {"measurement": "MCMV-Luc infection and replication (luciferase expression)", "setting": "MCMV-Luc; virus treated with 0.01 μM CM", "result": "able to grow and replicate but slower than untreated"}, {"measurement": "MCMV-Luc infection and replication (luciferase expression)", "setting": "MCMV-Luc; virus treated with 1.0 μM CM", "result": "allowed the virus to infect host cells but not replicate"}, {"measurement": "MCMV-Luc infection and replication (luciferase expression)", "setting": "MCMV-Luc; virus treated with 10 μM CM", "result": "did not allow the MCMV-Luc to infect the cells"}, {"measurement": "VZV growth in implanted skin tissues", "setting": "VZV-Luc [2]; VZV-Luc treated with 1.0 μM CM", "result": "growing very slowly and have growth defects"}, {"measurement": "Luciferase activity (viral load) in implanted tissues", "setting": "VZV-Luc [2]; [3]", "result": "no luciferase activity in implanted tissues"}, {"measurement": "VZV growth in implanted skin tissues", "setting": "VZV-Luc [2]; [3]", "result": "did not grow in skin implants"}]}
